According to patent publication US8410068B2, “Compounds for the treatment or alleviation of edema, and methods for their use” (Index Pharmaceuticals AB, priority 2007, dated 2013):

Tested on: tetradecanoylphorbol 13-acetate (TPA) induced ear edema
Assay: TPA-induced ear edema model
Type: in vivo, mice
Details: for AUC reduction (%) TPA: 10 μg one single s.c. injection 20 minutes before TPA, compared to PBS control; for Peak reduction (%) TPA: 10 μg subcutaneously 20 minutes before induction of edema; for Differences in AUC: Study L dose response; for Reduction of AUC compared to PBS: Study A / FIG. 1, one single injection (i.p. in Study A, s.c. in FIG. 1) 20 min before TPA, day 0; for AUC reduced: Study J
Description: A stock solution of TPA was prepared by dissolving TPA in DMSO, 1 mg/mL, and was stored frozen at −80° C. For study B-E, a working solution was prepared with 200 μL of the TPA stock solution added to 800 μL acetone. The working solution was used the same day as it was prepared.
Each cage was identified by a cage card marked with study number, group number, ethical approval number, sex and animal ear numbers. The animals were individually marked on the tail with transverse lines corresponding to the animals' number, using a permanent-ink felt pen. An illustration of the protocols used for the different treatments is outlined in Table 4. The compounds were tested according to the same protocols with necessary modifications.
Intraperitoneal (i.p.) injections were performed by giving 100 μL in the lower right quadrant of the abdomen. Subcutaneous injections were done with 100 μL in the neck region. Intranasal administration was performed by letting the mouse inhale droplets into the nostrils, total volume 40 μL. All administrations were done on non-anesthetized mice.
Both outer ears of a non-anesthetized mouse were washed with mild soap (Palmolive, Sweden) using a soft tooth brush, the ears were dried with tissue and cleaned with tissue soaked with acetone. After allowing the acetone to evaporate, TPA or AA was applied on both sides, 10 μL, on each side of the ear with care to cover the whole ear. The mouse was held for 20 seconds to allow the solvent to evaporate.
Intraperitoneal injections were given in the lower right quadrant of the abdomen with the animal held in a supine position. Subcutaneous (s.c.) injections were given in the neck of the animals. Intranasal administrations were given to mice held in a slightly reclining position. With an adjustable micro-pipette 40 μL of the test substance was given in droplets on the nostrils and the mouse was allowed to aspirate at free will.
The ears of non-anesthetized mice were measured at different time points for up to 96 hours after the TPA was administered, or up to 24 hours for the AA model. The first measurements were done before the edema was induced. The thickness was recorded with a spring loaded dial micrometer (Limit, Thickness Gauge, accuracy 0.01 mm, contact area Ø6 mm, Luna AB, Allingsås, Sweden) in triplicates at all time points per ear.
The average thickness for both ears on a mouse was calculated and compared to the average thickness of the ears at the starting time point. The value obtained at the start of the experiment was set as 100%. The peak values and area under the curve (AUC) values for the treatment groups were calculated and compared to the inflamed control group, treated with PBS (set as 100%), and expressed as a percentage change (Δ% AUC).
Area under the curve (AUC) with base line set as 100 was calculated using GraphPad Prism version 4.03 for Windows (GraphPad Software, San Diego Calif. USA, www.graphpad.com).
AUC reduction and P-values were calculated against the positive control (TPA or AA+PBS).

[1] = Study B, 100 μg s.c. 4 days before induction of edema
[2] = Study C (repeat of B), 100 μg s.c. 4 days before induction of edema
[3] = Study D, 100 μg s.c. 2 days before induction of edema
[4] = Study E, 100 μg s.c. same day, approx. 20 min before induction
[5] = Study F, equal doses 50 μg s.c. same day as swelling induced
[6] = Study G, therapeutic, 100 μg s.c. 2 hours after induction of edema
[7] = Study H, 100 μg intranasal 4 days before swelling induced
[8] = Study I, 100 μg intranasal day 0, same day as edema induced
[9] = therapeutic, 100 μg intranasal 2 hours after induction

Substance: T*C*G*TCTGCTTAGTTCGTTA*G*T*T (TCGTCTGCTTAGTTCGTTAGTT; DNA, linkages s3 o15 s3 (s phosphorothioate, o phosphodiester), methylation of C not given here) [IDX9087]
- AUC reduction (%) TPA: −40.2%
- Peak reduction (%) TPA: +0.9%

Substance: G*G*A*ACAGTTGCTCCAT*G*G*C (as printed in the source, key not given here) [IDX0526, negative control, having the CpG motif substituted with a GC]
- Differences in AUC (0.1 μg, one single i.n. (Table 4) day 0): +1.24%
- Differences in AUC (100 μg, one single i.n. (Table 4) day 0): +6.18%
- anti-swelling activity (Study L, 0.1-100 μg): no anti-swelling activity

Substance: T*C*C*GCGTTCGGCCTCCTGGCG*C*G*G (phosphorothioate linkages, as printed in the source, key not given here) [IDX0001, oligonucleotide; * = phosphorothioate modification]
- Reduction of AUC compared to PBS (100 μg): −15.7%
- reduction of AUC [1]: −16.3%
- reduction of AUC [2]: −17.9%
- reduction of AUC [3]: −12.4%
- reduction of AUC [4]: −16.7%
- reduction of AUC [5]: −13.2%
- reduction of AUC [6]: −17.9%
- reduction of AUC [7]: −25.7%
- reduction of AUC [8]: −6.4%
- AUC reduced [9]: −25.2%

Substance: T*C*C*A*T*G*A*C*G*T*T*C*C*T*G*A*C*G*T*T [IDX0920]
- Reduction of AUC compared to PBS (50 μg): −22.1%
- reduction of AUC (Study B, 50 μg s.c. 4 days before induction of edema): −19.3%
- reduction of AUC (Study C (repeat of B), 50 μg s.c. 4 days before induction of edema): −3%
- reduction of AUC (Study D, 50 μg s.c. 2 days before induction of edema): −19.1%
- reduction of AUC (Study E, 50 μg s.c. same day, approx. 20 min before induction): −19.4%
- reduction of AUC [5]: −17%
- reduction of AUC (Study G, therapeutic, 50 μg s.c. 2 hours after induction of edema): −43.8%
- reduction of AUC (Study H, 50 μg intranasal 4 days before swelling induced): −33.8%
- reduction of AUC (Study I, 50 μg intranasal day 0, same day as edema induced): −27.3%
- AUC reduced (therapeutic, 50 μg intranasal 2 hours after induction): −28.7%

Substance: G*G*A*A*C*A*G*T*T*C*G*T*C*C*A*T*G*G*C (as printed in the source, key not given here) [IDX0500]
- reduction of AUC (Study N, 0.005 μg, one single i.n. (Table 4) day 0): −15%
- reduction of AUC (Study N, 0.01 μg, one single i.n. (Table 4) day 0): −15.3%
- reduction of AUC (Study N, 0.1 μg, one single i.n. (Table 4) day 0): −18.2%
- reduction of AUC (Study N, 1 μg, one single i.n. (Table 4) day 0): −54.1%
- reduction of AUC (Study O, 10 μg given s.c. on day 0 (Table 4: i.n.)): −25.5%

Substance: T*C*C*ATGGTCAGGGTCCCGG*G*G*G (TCCATGGTCAGGGTCCCGGGGG; DNA, linkages s3 o15 s3 (s phosphorothioate, o phosphodiester), methylation of C not given here) [IDX9064, oligonucleotide; * = phosphorothioate modification]
- AUC reduction (%) TPA: −59.7%
- Peak reduction (%) TPA: −41.7%

Substance: G*G*G*GAACAGTTCGTCCAT*G*G*C (phosphorothioate linkages, as printed in the source, key not given here) [IDX0955, oligonucleotide used as control; * = phosphorothioate modification]
- Reduction of AUC compared to PBS (100 μg): −4.8%
- reduction of AUC [1]: −22.7%
- reduction of AUC [2]: −24.3%
- reduction of AUC [3]: −17.8%
- reduction of AUC [4]: −17.7%
- reduction of AUC [5]: −18.3%
- reduction of AUC [6]: −40.7%
- reduction of AUC [7]: −17.4%
- reduction of AUC [8]: −28.8%
- AUC reduced [9]: −17.2%
